What all share (format): cell-based
Test [1] concerns Caki-2 cells. Kind of test: CTG (CellTiter-Glo) cell viability assay, Caki-2. The following applies: Homo sapiens, CAKI-2, 72 h, Caki-2, 3-day; read-out: CTG Chempartner/PHA- Caki-2 3-day: Average external-IC50. A digest of the protocol: (§1)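 Cells seeded at 10,000 per well, then exposed to a 9-point 1:3 dilution series from 10 µM top concentration (0.2% DMSO) for 3 days at 37 °C, 5% CO2. Viability measured by CellTiter-Glo luminescence; IC50 from a three-parameter logistic fit.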

Test [2] has as its target T1, BCL-XL (Homo sapiens, UniProt Q07817).
T1 construct: BCL-XL degradation results in MOLT-4 cells for compounds of the invention; endogenous in cells; host or cells: MOLT-4
The test can be described thus: BCL-XL degradation assay in MOLT-4 cells (ELISA, 6 h).

Test [3] deals with MOLT-4 cells. Kind of test: CTG (CellTiter-Glo) cell viability assay, MOLT-4. The settings on record: Homo sapiens, MOLT-4, 72 h, MOLT-4, 3 day; read-out: CTG Cell Viability Assay - MOLT-4 3 day: Average external-IC50. In outline:
as §1

Each structure is given as a SMILES string.

T1 sequence (Q07817 whole entry): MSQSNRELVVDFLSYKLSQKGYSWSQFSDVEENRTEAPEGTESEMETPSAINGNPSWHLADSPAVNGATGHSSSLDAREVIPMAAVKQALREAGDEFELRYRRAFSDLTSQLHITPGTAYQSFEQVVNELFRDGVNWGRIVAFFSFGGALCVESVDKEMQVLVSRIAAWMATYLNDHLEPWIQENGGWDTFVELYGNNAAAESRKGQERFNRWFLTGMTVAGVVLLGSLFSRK

With `C#Cc1ccc([C@H](CO)NC(=O)[C@@H]2C[C@@H](O)CN2C(=O)[C@@H](NC(=O)CCCCCC(=O)N2CCN(CC[C@H](CSc3ccccc3)Nc3ccc(S(=O)(=O)NC(=O)c4ccc(N5CCN([C@@H](O)c6ccccc6-c6ccc(Cl)cc6)CC5)cc4)cc3S(=O)(=O)C(F)(F)F)CC2)C(C)(C)C)cc1` [I-135], the IC50 in test [1] was 10000 to 30000 nM; in test [3], less than 100 nM. In test [2], the Dmax was greater than 75%. Further, the DC50 in test [2] (read-out: Bcl-xL ELISA in MOLT-4 degradation 6 h: External Abs-DC50) lay in the range of 10 to 100 nM.
